{"source": "paper PMC11323273", "about": "“A Multipurpose Metallophore and Its Copper Complexes with Diverse Catalytic Antioxidant Properties to Deal with Metal and Oxidative Stress Disorders: A Combined Experimental, Theoretical, and In Vitro Study” (Inorganic Chemistry, 2024)", "key": {"[1]": {"details": "cited from earlier work"}, "Rat glioma C6 cells": {"tested_on": "Rat glioma C6 cells", "experiment": "ROS mitigation in cells using DCFH-DA", "format": "cell-based", "description": "Rat C6 glioma cells were grown in a 25 cm^2 culture flask containing Dulbecco’s modified Eagle medium (DMEM) supplemented with 10% (v/v) fetal bovine serum (FBS) at 37 °C in a 5% CO2 atmosphere.\nTo evaluate redox homeostasis, the level of ROS was assessed using the redox-sensitive dye 2′,7′-dichlorodihydrofluorescein diacetate (DCFH-DA). Rat C6 glioma cells were seeded at a density of 1 × 10^5 cells/well in a 96-well plate and cultured in high-glucose DMEM supplemented with 10% (v/v) FBS at 37 °C in a 5% CO2 atmosphere. The cells were pretreated with the compounds (25 μmol L^–1) and incubated for 24 h. The cells were washed and subjected to different oxidative stress models for 1 h, including (i) metallic stress via the addition of 25 μmol L^–1 CuCl, (ii) direct addition of a 25 μmol L^–1 hydrogen peroxide solution, (iii) superoxide anion (O2^•–) generated by the xanthine ([…])/xanthine oxidase (0.1 unit/mL) enzymatic system, and (iv) hydroxyl radical (^•OH) generated by the Fenton reaction using 0.4 μmol L^–1 CuCl and 4 μmol L^–1 H2O2. The concentrations refer to the final concentrations of each well. After exposure to the oxidative stress conditions, the cells were washed and incubated with DCFH-DA (10 μmol L^–1) for 45 min. The fluorescence was measured using the model M200 Tecan Infinite microplate reader with excitation and emission wavelengths of 450 and 535 nm, respectively."}, "[2]": {"set-up": "method as in PMID 4833643", "details": "cited from earlier work"}, "[3]": {"experiment": "Potentiometric titration: protonation equilibria and species distribution", "format": "physicochemical", "details": "70:30 ethanol/water solution, 25 °C, read-out: log K [H2L^+]/[HL][H^+] (pKa of the amine group)", "description": "The potentiometric studies were carried out with a Corning 350 digital pH meter fitted with blue-glass and Ag/AgCl reference electrodes calibrated to read −log[H^+] directly, designated as pH. Doubly distilled water in the presence of KMnO4 was used to prepare the solutions. For the ligands, the study was performed in a 70:30 ethanol/water solution, while the copper complexes were studied in water. The electrode was calibrated using the data obtained from the potentiometric titration of a known volume of a standard 0.100 mol L^–1 HCl solution with a standard 0.100 mol L^–1 KOH solution. The ionic strength of the HCl solution was maintained at 0.100 mol L^–1 upon the addition of KCl. […]\nThe titration curves were processed with BEST7,[86] which has as input file: titrant concentration, an initial value for the number of millimoles of the species under investigation, the volume increments of the titrant added, and the corresponding values of pH measured during titration. The program uses the least-squares method to minimize the differences between the calculated pH values and the experimental ones obtained during the titration, keeping fixed the values of the known equilibrium constants, such as those for the hydrolysis of the metal ion,[87] and varying the values of the constants to be determined, minimizing the error. […]"}, "[4]": {"set-up": "method as in doi:10.3390/pr10010132", "details": "studied under the same conditions; read-out: RSA50; cited from earlier work"}}, "note": "Like-named read-outs stand apart in the source and are kept apart here.", "data": [{"smiles": "NC(=O)CCN1CCN(CCC(N)=O)CC1.[Cl-].[Cl-].[Cu+2]", "note": "[[Cu(BPAP)H2O]Cl2]", "values": [{"measurement": "IC50", "setting": "[1]", "result": "168 ± 30", "unit": "nM"}]}, {"smiles": "[Cl][Cu]", "note": "[Cu(I), CuCl, reference compound]", "values": [{"measurement": "increase of cell fluorescence (ROS level) compared to the control", "setting": "Rat glioma C6 cells; 25 μmol L^–1 CuCl, 1 h", "result": 3, "unit": "fold"}]}, {"smiles": "c1ccc(CNCc2ccccn2)nc1", "note": "[bis(2-pyridylmethyl)amine, reference compound]", "values": [{"measurement": "pKa", "setting": "[2]; amine group", "result": 7.28}]}, {"smiles": "NC(=O)CCN1CCCN(CCC(N)=O)CC1.[Cl-].[Cl-].[Cu+2]", "note": "[[Cu(BPAH)H2O]Cl2]", "values": [{"measurement": "IC50", "setting": "[1]", "result": "129 ± 33", "unit": "nM"}]}, {"smiles": "CC(O)CNCc1ccccn1", "note": "(stereo not shown) [HL, 1-(pyridin-2-ylmethylamino)propan-2-ol]", "values": [{"measurement": "antioxidant effect in cells exposed to hydroxyl radical", "setting": "Rat glioma C6 cells; pretreatment 25 μmol L^–1, 24 h, 0.4 μmol L^–1 CuCl and 4 μmol L^–1 H2O2 1 h", "result": "HL ∼ 1 > 2"}, {"measurement": "redox status of cells exposed to Cu(I) (DCFH-DA fluorescence)", "setting": "Rat glioma C6 cells; pretreatment 25 μmol L^–1, 24 h, 25 μmol L^–1 CuCl 1 h", "result": "no change in the cell redox status"}, {"measurement": "protection of cells against exogenous H2O2 (redox level)", "setting": "Rat glioma C6 cells; pretreatment 25 μmol L^–1, 24 h, 25 μmol L^–1 H2O2 1 h", "result": "maintaining the redox state at the basal level"}, {"measurement": "antioxidant protection of cells against superoxide radical anion", "setting": "Rat glioma C6 cells; pretreatment 25 μmol L^–1, 24 h, xanthine/xanthine oxidase 1 h", "result": "maintaining the redox state at the basal level"}, {"measurement": "pKa of the pyridine group", "setting": "[2]", "result": "< 3"}, {"measurement": "pKa", "setting": "[3]", "result": 8.11}]}, {"smiles": "[Cl][Cu][Cl].c1ccc(CNCc2ccccn2)nc1", "note": "[[Cu(bmpa)Cl2]]", "values": [{"measurement": "EC50", "setting": "[4]", "result": 1.07, "unit": "mM"}]}, {"smiles": "[Cl][Cu][Cl]", "note": "[CuCl2·2H2O]", "values": [{"measurement": "IC50", "setting": "[1]", "result": "910 ± 191", "unit": "nM"}]}, {"smiles": "NC(=O)CCNCCNCCC(N)=O.[Cl-].[Cl-].[Cu+2]", "note": "[[Cu(BCEN)]Cl2·2H2O]", "values": [{"measurement": "IC50", "setting": "[1]", "result": "179 ± 17", "unit": "nM"}]}]}
